Reference: patent US20240208957A1, “TRIAZINE DERIVATIVE AS REVERSIBLE AND IRREVERSIBLE COVALENT INHIBITORS OF PI3K” (UNIVERSITÄT BASEL, priority 2021, published 2024)
Like-named read-outs stand apart in the source and are kept apart here.

Legend:
[1] = Intrinsic reactivity of the inhibitors with βME measured with HPLC; type: physicochemical; details: 1 mM inhibitor + 600 mM βME, n = 3, mean
Excerpt: E˜I→EI • ii) off-target reactions with ubiquitous sulfhydryls (S) and other nucleophils present in physiologic environments such as cells and body fluids are driven by the intrinsic reactivity of the warhead that is defined by Kchem driving the conversion of S and I to form the sulfhydryl-adduct (SI) [table]

[2] = system: pSer473 of PKB/Akt in SKOV3 cells; test: In-Cell Western cellular PI3K signaling, pSer473 of PKB/Akt in SKOV3 cells; type: cell-based; details: Homo sapiens
Protocol: Protein phosphorylation was detected as follows: pSer473 of PKB/Akt with rabbit polyclonal antibody from Cell Signaling Technology (CST) (#4058) by In-Cell Western assays, where 1.2×10^4 SKOV3 cells/well in 96-well plates were plated (Cell Carrier, PerkinElmer) for 24 hours (37° C., 5% CO2), as described in Ref.^21.

p110α (PI3Kα) = p110α (PI3Kα) (Homo sapiens, UniProt P42336); test: LanthaScreen determination of kinetic constants (kinact, Ki) for p110α; type: binding; details: for Ki: dissociation constant of the first reversible binding, mean of 3; for kinact: read-out: kinact PI3Kα;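 as to all read-outs here: covalent inhibition constants for p110α come from LanthaScreen data, fitted globally by numerical integration in KinTek Global Kinetic Explorer software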
p110α (PI3Kα), sequence (P42336 whole entry): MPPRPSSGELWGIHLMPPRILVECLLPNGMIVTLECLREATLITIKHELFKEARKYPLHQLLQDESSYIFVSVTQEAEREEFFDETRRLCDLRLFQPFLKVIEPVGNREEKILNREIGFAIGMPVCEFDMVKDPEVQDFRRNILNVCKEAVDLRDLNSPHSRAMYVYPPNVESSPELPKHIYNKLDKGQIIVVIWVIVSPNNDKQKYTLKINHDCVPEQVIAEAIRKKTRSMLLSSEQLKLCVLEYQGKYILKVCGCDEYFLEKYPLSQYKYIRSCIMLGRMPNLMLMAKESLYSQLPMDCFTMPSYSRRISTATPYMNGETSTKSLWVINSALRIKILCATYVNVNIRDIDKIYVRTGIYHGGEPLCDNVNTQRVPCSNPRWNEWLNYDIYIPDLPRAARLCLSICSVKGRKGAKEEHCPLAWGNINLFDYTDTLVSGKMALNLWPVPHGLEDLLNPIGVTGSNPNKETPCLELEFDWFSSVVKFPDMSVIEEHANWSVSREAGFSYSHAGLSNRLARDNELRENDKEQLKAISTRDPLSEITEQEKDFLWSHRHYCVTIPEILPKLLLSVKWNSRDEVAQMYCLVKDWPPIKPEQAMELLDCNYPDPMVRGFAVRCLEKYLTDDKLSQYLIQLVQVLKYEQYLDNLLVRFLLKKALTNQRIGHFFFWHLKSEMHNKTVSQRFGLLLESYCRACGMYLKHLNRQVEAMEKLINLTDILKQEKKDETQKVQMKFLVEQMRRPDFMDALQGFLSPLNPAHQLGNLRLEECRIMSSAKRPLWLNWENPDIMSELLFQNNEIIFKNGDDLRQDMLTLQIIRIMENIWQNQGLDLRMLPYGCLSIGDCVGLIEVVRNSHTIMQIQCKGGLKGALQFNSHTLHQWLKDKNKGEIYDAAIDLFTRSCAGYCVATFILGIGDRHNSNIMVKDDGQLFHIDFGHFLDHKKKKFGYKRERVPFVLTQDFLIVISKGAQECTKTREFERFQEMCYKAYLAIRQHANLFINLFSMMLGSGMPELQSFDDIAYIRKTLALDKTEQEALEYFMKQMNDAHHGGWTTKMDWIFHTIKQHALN
p110α (PI3Kα), sequence (P27986 whole entry partner): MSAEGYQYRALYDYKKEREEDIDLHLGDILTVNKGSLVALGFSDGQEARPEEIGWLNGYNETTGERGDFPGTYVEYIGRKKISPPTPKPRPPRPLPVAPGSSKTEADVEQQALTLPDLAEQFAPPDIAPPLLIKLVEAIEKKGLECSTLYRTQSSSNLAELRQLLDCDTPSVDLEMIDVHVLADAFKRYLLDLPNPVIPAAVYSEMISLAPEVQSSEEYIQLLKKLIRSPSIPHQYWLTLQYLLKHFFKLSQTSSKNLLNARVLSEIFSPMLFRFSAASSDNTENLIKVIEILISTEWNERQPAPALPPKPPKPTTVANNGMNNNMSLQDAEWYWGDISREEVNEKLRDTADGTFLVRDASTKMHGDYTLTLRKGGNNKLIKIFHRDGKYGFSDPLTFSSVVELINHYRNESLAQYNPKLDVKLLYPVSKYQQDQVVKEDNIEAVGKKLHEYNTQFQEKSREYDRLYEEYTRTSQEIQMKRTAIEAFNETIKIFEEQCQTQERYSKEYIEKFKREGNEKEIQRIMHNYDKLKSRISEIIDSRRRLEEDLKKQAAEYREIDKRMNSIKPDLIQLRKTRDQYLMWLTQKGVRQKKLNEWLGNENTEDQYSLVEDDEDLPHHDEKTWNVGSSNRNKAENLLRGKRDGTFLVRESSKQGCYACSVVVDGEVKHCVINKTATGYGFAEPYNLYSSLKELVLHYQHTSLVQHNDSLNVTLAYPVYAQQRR
Protocol: Apparent dissociation constants of compounds [Ki(app)] for p110α were determined by LanthaScreen Technology (Life Technologies), as described in Ref.^21.
Maximum potential rate of covalent bond formation (Kinact) and dissociation constant of the first reversible binding (Ki) of compounds for p110α were determined by LanthaScreen Technology (Life Technologies). The calculation of kinetic parameters was carried out through global fitting for numerical integration by using KinTek Global Kinetic Explorer modelling software^22-27.

[3] = SK-OV-3, SKOV3 cells, mean of 2 or 3 independent measurements, read-out: IC50 pPKB (S473) SKOV3
[4] = SK-OV-3, read-out: IC50 pPKB (S473) SKOV3
[5] = mean of 3 independent measurements, global fitting with KinTek

| Structure (SMILES) | kchem [1] [M⁻¹ s⁻¹] | IC50 [2, 3] [nM] | kinact/KI (p110α (PI3Kα)) [M⁻¹ s⁻¹] | Ki (p110α (PI3Kα)) [nM] | kinact (p110α (PI3Kα)) [s⁻¹] | IC50 [2, 4] [nM] | kinact/KI (p110α (PI3Kα); PI3Kα, read-out: kinact/Ki) [M⁻¹ s⁻¹] | kinact (p110α (PI3Kα); [5]) [s⁻¹] |
| --- | --- | --- | --- | --- | --- | --- | --- | --- |
| C=CC(=O)N1CCC(C(=O)NCC(=O)N2CCN(c3nc(-c4cnc(N)nc4C(F)F)nc(N4CCOCC4)n3)CC2)CC1 [Compound 44, 1-acryloyl-N-(2-(4-(4-(2-amino-4-(difluoromethyl)pyrimidin-5-yl)-6-morpholino-1,3,5-triazin-2-yl)piperazin-1-yl)-2-oxoethyl)piperidine-4-carboxamide] | 0.00037 | 82 |  |  |  |  |  |  |
| C=CC(=O)N1CC(C(=O)N(C)CC(=O)N2CCN(c3nc(-c4cnc(N)nc4C(F)F)nc(N4CCOCC4)n3)CC2)C1 [Compound 33, 1-acryloyl-N-(2-(4-(4-(2-amino-4-(difluoromethyl)pyrimidin-5-yl)-6-morpholino-1,3,5-triazin-2-yl)piperazin-1-yl)-2-oxoethyl)-N-methylazetidine-3-carboxamide] | 0.00581 |  | 1.17e+06 | 6.43 | 0.00757 | 55 |  |  |
| C=CC(=O)N1CC[C@@H](C(=O)NCC(=O)N2CCN(c3nc(-c4cnc(N)nc4C(F)F)nc(N4CCOCC4)n3)CC2)C1 [Compound 25, (R)-1-acryloyl-N-(2-(4-(4-(2-amino-4-(difluoromethyl)pyrimidin-5-yl)-6-morpholino-1,3,5-triazin-2-yl)piperazin-1-yl)-2-oxoethyl)pyrrolidine-3-carboxamide] | 0.00062 |  | 961000 | 5.36 | 0.00514 | 42 |  |  |
| C=CC(=O)N1CCCC[C@H]1C(=O)N(C)CC(=O)N1CCN(c2nc(-c3cnc(N)nc3C(F)F)nc(N3CCOCC3)n2)CC1 [Compound 22, (S)-1-acryloyl-N-(2-(4-(4-(2-amino-4-(difluoromethyl)pyrimidin-5-yl)-6-morpholino-1,3,5-triazin-2-yl)piperazin-1-yl)-2-oxoethyl)-N-methylpiperidine-2-carboxamide] | 0.00094 | 29.3 |  | 5.74 |  |  | 54000 | 0.000309 |
| C=CC(=O)N1CCC[C@H](C(=O)NCC(=O)N2CCN(c3nc(-c4cnc(N)nc4C(F)F)nc(N4CCOCC4)n3)CC2)C1 [Compound 15, (S)-1-acryloyl-N-(2-(4-(4-(2-amino-4-(difluoromethyl)pyrimidin-5-yl)-6-morpholino-1,3,5-triazin-2-yl)piperazin-1-yl)-2-oxoethyl)piperidine-3-carboxamide] | 0.00073 | 133 |  | 3.63 |  |  | 151000 | 0.000547 |
| C=CC(=O)N1CC[C@@H](C(=O)N(C)CC(=O)N2CCN(c3nc(-c4cnc(N)nc4C(F)F)nc(N4CCOCC4)n3)CC2)C1 [Compound 27, (R)-1-acryloyl-N-(2-(4-(4-(2-amino-4-(difluoromethyl)pyrimidin-5-yl)-6-morpholino-1,3,5-triazin-2-yl)piperazin-1-yl)-2-oxoethyl)-N-methylpyrrolidine-3-carboxamide] | 0.00049 | 64.1 |  | 6.07 |  |  | 531000 | 0.0032 |
| C=CC(=O)N1CCCC[C@@H]1C(=O)N(C)CC(=O)N1CCN(c2nc(-c3cnc(N)nc3C(F)F)nc(N3CCOCC3)n2)CC1 [Compound 23, (R)-1-acryloyl-N-(2-(4-(4-(2-amino-4-(difluoromethyl)pyrimidin-5-yl)-6-morpholino-1,3,5-triazin-2-yl)piperazin-1-yl)-2-oxoethyl)-N-methylpiperidine-2-carboxamide] | 0.001 | 60.5 |  | 8.47 |  |  | 27200 | 0.000231 |
| C=CC(=O)N1CC[C@H](C(=O)N(C)CC(=O)N2CCN(c3nc(-c4cnc(N)nc4C(F)F)nc(N4CCOCC4)n3)CC2)C1 [Compound 26, (S)-1-acryloyl-N-(2-(4-(4-(2-amino-4-(difluoromethyl)pyrimidin-5-yl)-6-morpholino-1,3,5-triazin-2-yl)piperazin-1-yl)-2-oxoethyl)-N-methylpyrrolidine-3-carboxamide] | 0.0005 | 227 |  | 5.28 |  |  | 150000 | 0.000789 |
| C=CC(=O)N1CCC(CCCC(=O)N2CCN(c3nc(-c4cnc(N)nc4C(F)F)nc(N4CCOCC4)n3)CC2)CC1 [Compound 47, 4-(1-acryloylpiperidin-4-yl)-1-(4-(4-(2-amino-4-(difluoromethyl)pyrimidin-5-yl)-6-morpholino-1,3,5-triazin-2-yl)piperazin-1-yl)butan-1-one] | 0.000225 | 24 | 70300 | 7.15 | 0.000504 |  |  |  |
| C=CC(=O)N1CC(C(=O)NCC(=O)N2CCN(c3nc(-c4cnc(N)nc4C(F)F)nc(N4CCOCC4)n3)CC2)C1 [Compound 32, 1-acryloyl-N-(2-(4-(4-(2-amino-4-(difluoromethyl)pyrimidin-5-yl)-6-morpholino-1,3,5-triazin-2-yl)piperazin-1-yl)-2-oxoethyl)azetidine-3-carboxamide] | 0.00517 | 175 |  |  |  |  |  |  |
| C=CC(=O)N1CCC[C@@H](C(=O)NCC(=O)N2CCN(c3nc(-c4cnc(N)nc4C(F)F)nc(N4CCOCC4)n3)CC2)C1 [Compound 16, (R)-1-acryloyl-N-(2-(4-(4-(2-amino-4-(difluoromethyl)pyrimidin-5-yl)-6-morpholino-1,3,5-triazin-2-yl)piperazin-1-yl)-2-oxoethyl)piperidine-3-carboxamide] | 0.00076 | 27.5 |  | 3.89 |  |  | 914000 | 0.00356 |
| C=CC(=O)N1CC(C(=O)NCCC(=O)N2CCN(c3nc(-c4cnc(N)nc4C(F)F)nc(N4CCOCC4)n3)CC2)C1 [Compound 35, 1-acryloyl-N-(3-(4-(4-(2-amino-4-(difluoromethyl)pyrimidin-5-yl)-6-morpholino-1,3,5-triazin-2-yl)piperazin-1-yl)-3-oxopropyl)azetidine-3-carboxamide] | 0.00662 | 609 |  | 13.4 |  |  | 126000 | 0.00169 |
| C=CC(=O)N1CCC[C@H]1C(=O)NCC(=O)N1CCN(c2nc(-c3cnc(N)nc3C(F)F)nc(N3CCOCC3)n2)CC1 [Compound 28, (S)-1-acryloyl-N-(2-(4-(4-(2-amino-4-(difluoromethyl)pyrimidin-5-yl)-6-morpholino-1,3,5-triazin-2-yl)piperazin-1-yl)-2-oxoethyl)pyrrolidine-2-carboxamide] | 0.00655 | 301 |  | 6.32 |  |  | 44500 | 0.000281 |
| C=CC(=O)N1CCCC[C@H]1C(=O)NCC(=O)N1CCN(c2nc(-c3cnc(N)nc3C(F)F)nc(N3CCOCC3)n2)CC1 [Compound 20, (S)-1-acryloyl-N-(2-(4-(4-(2-amino-4-(difluoromethyl)pyrimidin-5-yl)-6-morpholino-1,3,5-triazin-2-yl)piperazin-1-yl)-2-oxoethyl)piperidine-2-carboxamide] | 0.00444 | 59.3 |  | 3.06 |  |  | 212000 | 0.00065 |
| C=CC(=O)N1CC(C(=O)N(C)CCC(=O)N2CCN(c3nc(-c4cnc(N)nc4C(F)F)nc(N4CCOCC4)n3)CC2)C1 [Compound 37, 1-acryloyl-N-(3-(4-(4-(2-amino-4-(difluoromethyl)pyrimidin-5-yl)-6-morpholino-1,3,5-triazin-2-yl)piperazin-1-yl)-3-oxopropyl)-N-methylazetidine-3-carboxamide] | 0.00636 | 196 |  |  |  |  |  |  |
| C=CC(=O)N1CCC[C@H]1C(=O)N(C)CC(=O)N1CCN(c2nc(-c3cnc(N)nc3C(F)F)nc(N3CCOCC3)n2)CC1 [Compound 30, (S)-1-acryloyl-N-(2-(4-(4-(2-amino-4-(difluoromethyl)pyrimidin-5-yl)-6-morpholino-1,3,5-triazin-2-yl)piperazin-1-yl)-2-oxoethyl)-N-methylpyrrolidine-2-carboxamide] | 0.00058 |  |  |  |  |  |  |  |
| C=CC(=O)N1CCC(C(=O)N(C)CC(=O)N2CCN(c3nc(-c4cnc(N)nc4C(F)F)nc(N4CCOCC4)n3)CC2)CC1 [Compound 45, 1-acryloyl-N-(2-(4-(4-(2-amino-4-(difluoromethyl)pyrimidin-5-yl)-6-morpholino-1,3,5-triazin-2-yl)piperazin-1-yl)-2-oxoethyl)-N-methylpiperidine-4-carboxamide] | 0.000354 | 86 |  |  |  |  |  |  |
| C=CC(=O)N1CCC[C@@H]1C(=O)N(C)CC(=O)N1CCN(c2nc(-c3cnc(N)nc3C(F)F)nc(N3CCOCC3)n2)CC1 [Compound 31, (R)-1-acryloyl-N-(2-(4-(4-(2-amino-4-(difluoromethyl)pyrimidin-5-yl)-6-morpholino-1,3,5-triazin-2-yl)piperazin-1-yl)-2-oxoethyl)-N-methylpyrrolidine-2-carboxamide] | 0.00052 | 447 |  |  |  |  |  |  |
